Measurements published in patent US20230303599A1, “PRODRUGS OF PHOSPHONAMIDE NUCLEOTIDE ANALOGUES AND THEIR PHARMACEUTICAL USE” (priority 2020, published 2023).
Values after ≈ are worked out from the molar mass of the structure shown.

Experiments:
[1] = Cytotoxicity assay in MT-4 cells; format: cell-based; conditions: human, uninfected MT-4 cells, average of at least two independent experiments, read-out: MT4 CC50
Procedure: Compounds were tested in a high-throughput 384-well assay format for their ability to inhibit the replication of HIV-1 (IIIB) in MT-4 cells. Compounds were serially diluted (1:3) in DMSO on 384-well polypropylene plates and further diluted 200-fold into complete RPMI media (10% FBS, 1% P/S) using the Biotek Micro Flow and Labcyte ECHO acoustic dispenser. Each plate contained up to 8 test compounds, with negative (no drug) and positive (5 μM AZT) controls. MT-4 cells were pre-treated with 10 μL of either RPMI (mock-infected) or a fresh 1:250 dilution of HIV-1 IIIB concentrated virus stock. Infected and uninfected MT-4 cells were further diluted in complete RPMI media and added to each plate using a Micro Flow dispenser. After 5 days incubation in a humidified and temperature-controlled incubator (37° C.), Cell Titer Glo (Promega) was added to the assay plates and chemiluminescence read using an Envision plate-reader. EC50 values were defined as the compound concentration that causes a 50% decrease in luminescence signal and were calculated using a sigmoidal dose-response model to generate curve fits and are shown in Table 1.
Example 105: Cytotoxicity Assay in MT-4 Cells
Assays were performed as described in Example 104 except uninfected MT-4 cells were added to each well containing test compound. In addition, 10 μM puromycin was added to the last column of each assay plate to assess a base level of cytotoxicity.

[2] = Kinetic solubility analysis; format: physicochemical; conditions: 1× PBS, 24.2 °C, aqueous buffer, kinetic from dmso stock; pH 7.4 PBS, 1% DMSO, 24-hour incubation at ambient temperature
Procedure: Example 108: Kinetic Solubility Analysis
Buffer Preparation: 0.1 N HCl: Hydrochloric acid, 0.1 N standardized solution (MP Biomedicals part number 199569). 1×PBS, pH 7.4: Phosphate Buffered Saline (PBS) solution 10× (Fisher Bioreagent part number BP399-500) 50 mL was added to approximately 450 mL HPLC grade H2O. The volume of the solution was then adjusted to 500 mL for a total dilution factor of 1:10 and a final PBS concentration of 1×.
The final DMSO concentration was 1.0% (v/v) and maximum theoretical compound concentration is 100 μM (for compound stock concentration of 10 mM). The filter plate was sealed. Following 24-hour incubation at ambient temperature (24.2-27.5° C.), the samples were vacuum filtered and the filtrates were collected in a 96 well polypropylene plate for analysis. The collection plate was sealed for analysis. Filtrates were injected into the Antek 8060 chemiluminescent nitrogen detector for quantification. The results are reported in μM.
The filtrates were quantified with respect to this calibration curve. Each calculated solubility value was corrected for background nitrogen present in the DMSO and in the medium used to prepare the sample. All reported values for compounds containing adjacent nitrogen atoms in a ring structure were increased by approximately 25%.

Structure (SMILES)	solubility kinetic at 24 h [2] [µg/mL]	CC50 at 5 days [1] [µM]
C[C@H](Cn1cnc2c(N)ncnc21)OCP(=O)(N[C@@](C)(Cc1ccccc1)C(=O)OCC1CCCCC1)N[C@@](C)(Cc1ccccc1)C(=O)OCC1CCCCC1 [Example 15, Bis(cyclohexylmethyl) 2,2′-((((((R)-1-(6-amino-9H-purin-9-yl)propan-2-yl)oxy)methyl)phosphoryl)bis(azanediyl))(2S,2'S)-bis(2-methyl-3-phenylpropanoate)]	2 (≈ 2.49 µM)	4.36
CCCCCCOC(=O)C(C)(C)NP(=O)(CO[C@H](C)Cn1cnc2c(N)ncnc21)NC1(C(=O)OCCCCCC)CCC1 (stereo partly drawn) [Example 18, Hexyl 1-((((((R)-1-(6-amino-9H-purin-9-yl)propan-2-yl)oxy)methyl)((1-(hexyloxy)-2-methyl-1-oxopropan-2-yl)amino)phosphoryl)amino)cyclobutane-1-carboxylate]	22 (≈ 34.5 µM)	6.57
CCCCCCOC(=O)C1(NP(=O)(CO[C@H](C)Cn2cnc3c(N)ncnc32)NC2(C(=O)OCCCCCC)CCC2)CCC1 [Example 19, Dihexyl 1,1′-(((((1-(6-amino-9H-purin-9-yl)propan-2-yl)oxy)methyl)phosphoryl)bis(azanediyl))(R)-bis(cyclobutane-1-carboxylate)]	18 (≈ 27.7 µM)	17.3
C[C@H](Cn1cnc2c(N)ncnc21)OCP(=O)(NC(C)(C)C(=O)OCCC(C)(C)C)NC(C)(C)C(=O)OCCC(C)(C)C [Example 8, Bis(3,3-dimethylbutyl) 2,2′-(((((1-(6-amino-9H-purin-9-yl)propan-2-yl)oxy)methyl)phosphoryl)bis(azanediyl))(R)-bis(2-methylpropanoate)]	50 (≈ 79.9 µM)	–
CCCCCCOC(=O)[C@@]1(NP(=O)(CO[C@H](C)Cn2cnc3c(N)ncnc32)N[C@]2(C(=O)OCCCCCC)C[C@H]2CC)C[C@H]1CC [Example 17, Dihexyl 1,1′-((((((R)-1-(6-amino-9H-purin-9-yl)propan-2-yl)oxy)methyl)phosphoryl)bis(azanediyl))(1R,1′R,2R,2′R)-bis(2-ethylcyclopropane-1-carboxylate)]	–	8.85
CCC(CC)CCOC(=O)C(C)(C)NP(=O)(CO[C@H](C)Cn1cnc2c(N)ncnc21)NC(C)(C)C(=O)OCCC(CC)CC [Example 7, Bis(3-ethylpentyl) 2,2′-(((((1-(6-amino-9H-purin-9-yl)propan-2-yl)oxy)methyl)phosphoryl)bis(azanediyl))(R)-bis(2-methylpropanoate)]	7 (≈ 10.7 µM)	–
CCCCCCOC(=O)C(C)(C)NP(=O)(CO[C@H](C)Cn1cnc2c(NC(=O)CCC)ncnc21)NC(C)(C)C(=O)OCCCCCC [Example 29, Dihexyl 2,2′-(((((1-(6-butyramido-9H-purin-9-yl)propan-2-yl)oxy)methyl)phosphoryl)bis(azanediyl))(R)-bis(2-methylpropanoate)]	26 (≈ 37.4 µM)	–
C[C@H](Cn1cnc2c(N)ncnc21)OCP(=O)(NC(C)(C)C(=O)OC1CCC2(CCC2)CC1)NC(C)(C)C(=O)OC1CCC2(CCC2)CC1 (stereo partly drawn) [Example 63, Di(spiro[3.5]nonan-7-yl) 2,2′-(((((1-(6-amino-9H-purin-9-yl)propan-2-yl)oxy)methyl)phosphoryl)bis(azanediyl))(R)-bis(2-methylpropanoate)]	–	2.22
C[C@H](Cn1cnc2c(N)ncnc21)OCP(=O)(NC(C)(C)C(=O)O[C@H]1C[C@H](C(F)(F)F)C1)NC(C)(C)C(=O)O[C@H]1C[C@H](C(F)(F)F)C1 [Example 26, Bis(trans-3-(trifluoromethyl)cyclobutyl) 2,2′-((((((R)-1-(6-amino-9H-purin-9-yl)propan-2-yl)oxy)methyl)phosphoryl)bis(azanediyl))bis(2-methylpropanoate)]	78 (≈ 111 µM)	–

The next lines start with results.

solubility kinetic at 24 h [2] [µg/mL]	Structure (SMILES)	CC50 at 5 days [1] [µM]
< 1	CCCCCCOC(=O)C(NP(=O)(CO[C@H](C)Cn1cnc2c(N)ncnc21)NC(C(=O)OCCCCCC)(C1CC1)C1CC1)(C1CC1)C1CC1 [Example 64, Dihexyl 2,2′-(((((1-(6-amino-9H-purin-9-yl)propan-2-yl)oxy)methyl)phosphoryl)bis(azanediyl))(R)-bis(2,2-dicyclopropylacetate)]	7.34
59 (≈ 99.4 µM)	C[C@H](Cn1cnc2c(N)ncnc21)OCP(=O)(NC(C)(C)C(=O)OC1CCCC1)NC(C)(C)C(=O)OC1CCCC1 [Example 34, Dicyclopentyl 2,2′-(((((1-(6-amino-9H-purin-9-yl)propan-2-yl)oxy)methyl)phosphoryl)bis(azanediyl))(R)-bis(2-methylpropanoate)]	3.67
23 (≈ 26.1 µM)	CCCCCCOC(=O)C(C)(C)NP(=O)(CO[C@H](C)Cn1cnc2c(NC(=O)OC(C)(C)CC(=O)OCc3oc(=O)oc3C)ncnc21)NC(C)(C)C(=O)OCCCCCC [Example 101, Dihexyl 2,2′-(((((1-(6-((((2-methyl-4-((5-methyl-2-oxo-1,3-dioxol-4-yl)methoxy)-4-oxobutan-2-yl)oxy)carbonyl)amino)-9H-purin-9-yl)propan-2-yl)oxy)methyl)phosphoryl)bis(azanediyl))(R)-bis(2-methylpropanoate)]	7.68
25 (≈ 29.3 µM)	CCCCCCOC(=O)C(C)(C)NP(=O)(CO[C@H](C)Cn1cnc2c(NC(=O)CCCC(=O)OCc3oc(=O)oc3C)ncnc21)NC(C)(C)C(=O)OCCCCCC [Example 99, (5-Methyl-2-oxo-1,3-dioxol-4-yl)methyl 5-[[9-[(2R)-2-[bis[(2-hexoxy-1,1-dimethyl-2-oxo-ethyl)amino]phosphorylmethoxy]propyl]purin-6-yl]amino]-5-oxo-pentanoate]	17.2
10 (≈ 14.8 µM)	C[C@H](Cn1cnc2c(N)ncnc21)OCP(=O)(NC(C)(C)C(=O)OC1CCC(C)(C)CC1)NC(C)(C)C(=O)OC1CCC(C)(C)CC1 [Example 44, Bis(4,4-dimethylcyclohexyl) 2,2′-(((((1-(6-amino-9H-purin-9-yl)propan-2-yl)oxy)methyl)phosphoryl)bis(azanediyl))(R)-bis(2-methylpropanoate)]	–
61 (≈ 100 µM)	CCCCCCOC(=O)C(C)(C)NP(=O)(CO[C@H](C)Cn1cnc2c(N)ncnc21)NC(C)(C)C(=O)OC(C)C1CC1 (stereo partly drawn) [Example 81, 1-Cyclopropylethyl 2-((((((R)-1-(6-amino-9H-purin-9-yl)propan-2-yl)oxy)methyl)((1-(hexyloxy)-2-methyl-1-oxopropan-2-yl)amino)phosphoryl)amino)-2-methylpropanoate]	–
1 (≈ 1.47 µM)	CCCC(CCC)COC(=O)C(C)(C)NP(=O)(CO[C@H](C)Cn1cnc2c(N)ncnc21)NC(C)(C)C(=O)OCC(CCC)CCC [Example 69, Bis(2-propylpentyl) 2,2′-(((((1-(6-amino-9H-purin-9-yl)propan-2-yl)oxy)methyl)phosphoryl)bis(azanediyl))(R)-bis(2-methylpropanoate)]	–
10 (≈ 13.6 µM)	CCCCCCOC(=O)C(C)(C)NP(=O)(CO[C@H](C)Cn1cnc2c(NCc3oc(=O)oc3C)ncnc21)NC(C)(C)C(=O)OCCCCCC [Example 82, Dihexyl 2,2′-(((((1-(6-(((5-methyl-2-oxo-1,3-dioxol-4-yl)methyl)amino)-9H-purin-9-yl)propan-2-yl)oxy)methyl)phosphoryl)bis(azanediyl))(R)-bis(2-methylpropanoate)]	–
< 1	CCCCCCOC(=O)C(C)(C)NP(=O)(CO[C@H](C)Cn1cnc2c(NC(=O)OCCCCC)ncnc21)NC(C)(C)C(=O)OCCCCCC [Example 32, Dihexyl 2,2′-(((((1-(6-(((pentyloxy)carbonyl)amino)-9H-purin-9-yl)propan-2-yl)oxy)methyl)phosphoryl)bis(azanediyl))(R)-bis(2-methylpropanoate)]	–
54 (≈ 86.9 µM)	C[C@H](Cn1cnc2c(N)ncnc21)OCP(=O)(NC(C)(C)C(=O)OC1CC(C)(C)C1)NC(C)(C)C(=O)OC1CC(C)(C)C1 [Example 42, Bis(3,3-dimethylcyclobutyl) 2,2′-(((((1-(6-amino-9H-purin-9-yl)propan-2-yl)oxy)methyl)phosphoryl)bis(azanediyl))(R)-bis(2-methylpropanoate)]	–
45 (≈ 79 µM)	CCCCOC(=O)C(C)(C)NP(=O)(CO[C@H](C)Cn1cnc2c(N)ncnc21)NC(C)(C)C(=O)OCCCC [Example 38, Dibutyl 2,2′-(((((1-(6-amino-9H-purin-9-yl)propan-2-yl)oxy)methyl)phosphoryl)bis(azanediyl))(R)-bis(2-methylpropanoate)]	–
